Assay results as given in the supplement of paper PMC11061612.

Assays:
Assay in all cases: Bliss excess, mean over the matrix (fraction); higher = more synergy
MG-63 (Osteosarcoma) = test system: MG-63 (Osteosarcoma)
Outline: (§1)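 Cell lines in DMEM/F12 or RPMI with 10% FBS were plated in 1536-well plates, held 24 hours at 37°C, 5% CO2, then given two-drug dose matrices for 72 hours (DMSO typically 0.2%). Viability was read by CellTiter-Glo 2.0 luminescence and scaled as inhibition from 0 (vehicle wells) to 1 (blank wells). Combination Emax is the second-highest inhibition in the matrix; Bliss excess is observed combination effect minus expected EA + EB − EA·EB, EA and EB being single-agent effects.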

[1] = test system: NCI-H1435 (Non-Small Cell Lung Carcinoma)
Outline: as §1

NCI-H2452 (Mesothelioma) = test system: NCI-H2452 (Mesothelioma)
Outline: as §1

[2] = test system: KNS-62 (Squamous Cell Lung Carcinoma)
Outline: as §1

[3] = test system: BC-1 (B-Cell Non-Hodgkin's Lymphoma)
Outline: as §1

[4] = test system: SBC-3 (Small Cell Lung Carcinoma)
Outline: as §1

GCIY (Gastric Carcinoma) = test system: GCIY (Gastric Carcinoma)
Outline: as §1

[5] = test system: NCI-H2023 (Non-Small Cell Lung Carcinoma)
Outline: as §1

[6] = test system: CAL-85-1 (Breast Carcinoma)
Outline: as §1

[7] = test system: NTERA-2-cl-D1 (Other Solid Carcinomas)
Outline: as §1

[8] = test system: SUP-HD1 (Hodgkin's Lymphoma)
Outline: as §1

[9] = test system: SCC90 (Head and Neck Carcinoma)
Outline: as §1

DK-MG (Glioblastoma) = test system: DK-MG (Glioblastoma)
Outline: as §1

[10] = test system: RS4-11 (B-Lymphoblastic Leukemia)
Outline: as §1

[11] = test system: HT-3 (Cervical Carcinoma)
Outline: as §1

HT-144 (Melanoma) = test system: HT-144 (Melanoma)
Outline: as §1

[12] = test system: ATN-1 (T-Lymphoblastic Leukemia)
Outline: as §1

[13] = test system: BT-474 (Breast Carcinoma)
Outline: as §1

[14] = test system: TOV-21G (Ovarian Carcinoma)
Outline: as §1

[15] = test system: JJN-3 (Plasma Cell Myeloma)
Outline: as §1

Row | SMILES | Bliss excess (MG-63 (Osteosarcoma)) | Bliss excess [1] | Bliss excess (NCI-H2452 (Mesothelioma)) | Bliss excess [2] | Bliss excess [3] | Bliss excess [4] | Bliss excess (GCIY (Gastric Carcinoma)) | Bliss excess [5] | Bliss excess [6] | Bliss excess [7] | Bliss excess [8] | Bliss excess [9] | Bliss excess (DK-MG (Glioblastoma)) | Bliss excess [10] | Bliss excess [11] | Bliss excess (HT-144 (Melanoma)) | Bliss excess [12] | Bliss excess [13] | Bliss excess [14] | Bliss excess [15]
1 | C=CCn1c(=O)c2cnc(Nc3ccc(N4CCN(C)CC4)cc3)nc2n1-c1cccc(C(C)(C)O)n1 [AZD1775] + Nc1ccn([C@@H]2O[C@H](CO)[C@@H](O)C2(F)F)c(=O)n1 [Gemcitabine] (first compound max 1 µM, partner max 0.3 µM) | 0.0581 | -0.0012 | -0.0727 | 0.0179 | 0.0191 | -0.0105 | 0.0465 | 0.0248 | 0.0733 | -0.062 | – | – | – | – | – | – | – | – | – | –
2 | CN(CCO)CC[C@H](CSc1ccccc1)Nc1ccc(S(=O)(=O)NC(=O)c2ccc(N3CCC([C@@H](O)c4ccccc4-c4ccc(Cl)cc4)CC3)cc2)cc1S(=O)(=O)C(F)(F)F [AZD4320] + CS(=O)(=O)CCNCc1ccc(-c2ccc3ncnc(Nc4ccc(OCc5cccc(F)c5)c(Cl)c4)c3c2)o1 [Lapatinib] (first compound max 1 µM, 7x7, partner max 10 µM) | -0.0176 | 0.0765 | -0.019 | -0.0185 | 0.0372 | 0.052 | 0.0352 | 0.0132 | 0.0241 | -0.026 | – | – | – | – | – | – | – | – | – | –
3 | CN(CCO)CC[C@H](CSc1ccccc1)Nc1ccc(S(=O)(=O)NC(=O)c2ccc(N3CCC([C@@H](O)c4ccccc4-c4ccc(Cl)cc4)CC3)cc2)cc1S(=O)(=O)C(F)(F)F [AZD4320] + Cn1cnc2c(F)c(Nc3ccc(Br)cc3Cl)c(C(=O)NOCCO)cc21 [Selumetinib] (first compound max 1 µM, 7x7, partner max 3 µM) | -0.0179 | 0.0507 | -0.0688 | 0.03 | 0.0573 | -0.0148 | 0.0199 | 0.0178 | -0.0492 | -0.0415 | 0.0036 | 0.144 | 0.0286 | -0.0125 | 0.0308 | 0.15 | -0.0611 | -0.002 | 0.0593 | –
4 | Cc1c2c(nn1C)CSCc1cc(n(C)n1)CSc1cc(c3ccccc3c1)OCCCc1c(C(=O)O)n(C)c3c-2c(Cl)ccc13 [AZD5991] + CC(=O)O[C@H]1C(=O)[C@@]2(C)[C@H]([C@H](OC(=O)c3ccccc3)[C@]3(O)C[C@H](OC(=O)[C@H](O)[C@@H](NC(=O)c4ccccc4)c4ccccc4)C(C)=C1C3(C)C)[C@]1(OC(C)=O)CO[C@@H]1C[C@@H]2O [Paclitaxel] (first compound max 1 µM, 7x7, partner max 3 µM) | -0.0715 | 0.0254 | 0.0378 | -0.0159 | -0.0329 | -0.0404 | -0.0262 | 0.0058 | -0.0082 | 0.111 | – | – | – | – | – | – | – | – | – | –
5 | Cc1c2c(nn1C)CSCc1cc(n(C)n1)CSc1cc(c3ccccc3c1)OCCCc1c(C(=O)O)n(C)c3c-2c(Cl)ccc13 [AZD5991] + CS(=O)(=O)CCNCc1ccc(-c2ccc3ncnc(Nc4ccc(OCc5cccc(F)c5)c(Cl)c4)c3c2)o1 [Lapatinib] (first compound max 1 µM, 7x7, partner max 10 µM) | -0.0352 | -0.0063 | -0.0576 | -0.0155 | 0.0211 | -0.0235 | 0.013 | 0.0021 | -0.0213 | -0.0334 | – | – | – | – | – | – | – | – | – | –
6 | Cc1c2c(nn1C)CSCc1cc(n(C)n1)CSc1cc(c3ccccc3c1)OCCCc1c(C(=O)O)n(C)c3c-2c(Cl)ccc13 [AZD5991] + Cc1cc2ncnn2cc1Nc1ncc2c(n1)n(C1CCOCC1)c(=O)n2C [AZD7648] (first compound max 1 µM, 7x7, partner max 10 µM) | -0.0265 | -0.0055 | -0.0065 | 0.0266 | 0.0172 | -0.0801 | -0.0242 | -0.0423 | -0.055 | -0.0697 | -0.104 | -0.029 | -0.101 | – | -0.0173 | -0.0131 | -0.0513 | -0.0305 | -0.0461 | 0.0324
7 | C[C@@H]1COCCN1c1cc(C2([S@](C)(=N)=O)CC2)nc(-c2ccnc3[nH]ccc23)n1 [AZD6738] + C1CC(C1)(C(=O)[O-])C(=O)[O-].N.N.[Pt+2] [Carboplatin] (first compound max 10 µM, 7x7, partner max 10 µM) | -0.0391 | -0.0103 | -0.0212 | -0.0581 | -0.0173 | -0.031 | -0.066 | -0.0208 | -0.0551 | -0.0651 | – | – | – | – | – | – | – | – | – | –
8 | C[C@@H]1COCCN1c1cc(C2([S@](C)(=N)=O)CC2)nc(-c2ccnc3[nH]ccc23)n1 [AZD6738] + Nc1ccn([C@@H]2O[C@H](CO)[C@@H](O)C2(F)F)c(=O)n1 [Gemcitabine] (first compound max 10 µM, 7x7, partner max 0.3 µM) | 0.17 | 0.0799 | 0.0333 | 0.0023 | 0.0099 | 0.0306 | -0.0362 | 0.0123 | 0.0227 | -0.0019 | – | – | – | – | – | – | – | – | – | –
9 | C[C@@H](Nc1cc(F)cc(F)c1)c1cc(C(=O)N(C)C)cc2c(=O)cc(N3CCOCC3)oc12 [AZD8186] + CC(=O)c1c(C)c2cnc(Nc3ccc(N4CCNCC4)cn3)nc2n(C2CCCC2)c1=O [Palbociclib] (first compound max 10 µM, 7x7, partner max 10 µM) | 0.0535 | 0.0802 | -0.0353 | -0.0035 | 0.0867 | 0.0742 | 0.0171 | 0.0108 | -0.0529 | 0.0104 | – | – | – | – | – | – | – | – | – | –
10 | C[C@@H](Oc1cc(-c2cnn(C3CCNCC3)c2)cnc1N)c1c(Cl)ccc(F)c1Cl [Crizotinib] + CC1=C(C(=CC=C1)Cl)NC(=O)C2=CN=C(S2)NC3=CC(=NC(=N3)C)N4CCN(CC4)CCO [Dasatinib] (first compound max 10 µM, 7x7, partner max 2 µM) | 0.0498 | 0.0039 | 0.0069 | -0.0258 | 0.0312 | 0.0493 | 0.0537 | -0.012 | 0.001 | 0.0073 | – | – | – | – | – | – | – | – | – | –
11 | CS(=O)(=O)CCNCc1ccc(-c2ccc3ncnc(Nc4ccc(OCc5cccc(F)c5)c(Cl)c4)c3c2)o1 [Lapatinib] + Cn1cnc2c(F)c(Nc3ccc(Br)cc3Cl)c(C(=O)NOCCO)cc21 [Selumetinib] (first compound max 10 µM, 7x7, partner max 10 µM) | -0.0863 | 0.0172 | -0.0363 | 0.0708 | 0.0547 | -0.0109 | -0.0067 | -0.0391 | 0.0396 | -0.0125 | – | – | – | – | – | – | – | – | – | –
12 | CS(=O)(=O)CCNCc1ccc(-c2ccc3ncnc(Nc4ccc(OCc5cccc(F)c5)c(Cl)c4)c3c2)o1 [Lapatinib] + NC1(c2ccc(-c3nc4ccn5c(=O)[nH]nc5c4cc3-c3ccccc3)cc2)CCC1 [MK-2206] (first compound max 10 µM, 7x7, partner max 10 µM) | 0.0157 | 0.0601 | -0.0302 | 0.0408 | 0.0584 | 0.0258 | 0.0484 | 0.0246 | -0.0016 | 0.0305 | – | 0.0358 | – | – | – | – | – | – | – | 0.0508
13 | O=C(c1cc(Cc2n[nH]c(=O)c3ccccc23)ccc1F)N1CCN(C(=O)C2CC2)CC1 [Olaparib] + CC1(C)CCC(CN2CCN(c3ccc(C(=O)NS(=O)(=O)c4ccc(NCC5CCOCC5)c([N+](=O)[O-])c4)c(Oc4cnc5[nH]ccc5c4)c3)CC2)=C(c2ccc(Cl)cc2)C1 [Venetoclax] (first compound max 10 µM, 7x7, partner max 1 µM) | 0.0113 | -0.01 | -0.0646 | -0.0346 | 0.0012 | -0.0063 | -0.0547 | -0.0292 | -0.026 | -0.0419 | – | – | – | – | – | – | – | – | – | –
14 | O=C(c1cc(Cc2n[nH]c(=O)c3ccccc23)ccc1F)N1CCN(C(=O)C2CC2)CC1 [Olaparib] + CN(CC[C@H](CSC1=CC=CC=C1)NC2=C(C=C(C=C2)S(=O)(=O)NC(=O)C3=CC=C(C=C3)N4CCC(CC4)[C@H](C5=CC=CC=C5C6=CC=C(C=C6)Cl)O)S(=O)(=O)C(F)(F)F)CCO [AZD4320] (first compound max 10 µM, 7x7, partner max 1 µM) | -0.0185 | -0.0086 | -0.0697 | -0.0436 | 0.061 | 0.0197 | 0.0025 | -0.041 | 0.0221 | 0.0258 | – | – | – | – | – | – | – | – | – | –
15 | O=C(c1cc(Cc2n[nH]c(=O)c3ccccc23)ccc1F)N1CCN(C(=O)C2CC2)CC1 [Olaparib] + Cc1c2c(nn1C)CSCc1cc(n(C)n1)CSc1cc(c3ccccc3c1)OCCCc1c(C(=O)O)n(C)c3c-2c(Cl)ccc13 [AZD5991] (first compound max 10 µM, 7x7, partner max 1 µM) | -0.0465 | -0.0055 | -0.0199 | -0.0396 | 0.0737 | -0.0134 | -0.041 | -0.0502 | -0.0484 | 0.0289 | – | – | – | – | – | – | – | – | – | –
16 | CCc1c2c(nc3ccc(O)cc13)-c1cc3c(c(=O)n1C2)COC(=O)[C@]3(O)CC [SN-38] + O=C(c1cc(Cc2n[nH]c(=O)c3ccccc23)ccc1F)N1CCN(C(=O)C2CC2)CC1 [Olaparib] (first compound max 0.3 µM, 7x7, partner max 10 µM) | 0.0681 | 0.0243 | 0.0422 | 0.0497 | 0.0369 | 0.0513 | 0.0875 | 0.0986 | 0.059 | 0.0387 | -0.0168 | 0.0728 | 0.0193 | – | 0.0669 | – | 0.0907 | – | – | 0.0187
17 | CC1(C)CCC(CN2CCN(c3ccc(C(=O)NS(=O)(=O)c4ccc(NCC5CCOCC5)c([N+](=O)[O-])c4)c(Oc4cnc5[nH]ccc5c4)c3)CC2)=C(c2ccc(Cl)cc2)C1 [Venetoclax] + CS(=O)(=O)CCNCc1ccc(-c2ccc3ncnc(Nc4ccc(OCc5cccc(F)c5)c(Cl)c4)c3c2)o1 [Lapatinib] (first compound max 1 µM, 7x7, partner max 10 µM) | 0.0029 | 0.0073 | -0.0546 | -0.0116 | 0.022 | -0.0339 | -0.0655 | -0.06 | -0.044 | -0.0618 | – | – | – | – | – | – | – | – | – | –
